The record followed here is patent US10932454B2, “LDL receptor gene knockout, genetically-engineered hamster” (HEBEI INVIVO BIOTECH INC, priority 2016, dated 2021).

SMILES strings stand for the structures. Entries after “also recorded” stand apart in the source; their conditions may differ.

The test system of series [1] is wild type control hamsters. In words: High-fat diet feeding with intragastric ezetimibe in wild type hamsters; plasma lipids. The following applies: WT hamsters, high-fat diet plus 2 mg/kg ezetimibe intragastric daily for two weeks. The series is classed as in vivo, golden Syrian hamster. As for the experimental part:
The high-fat diet used in the study was a normal rodent diet containing 0.5% cholesterol and 10% lard. The dose of ezetimibe was 2 mg/kg body weight, administered by intragastric administration, and the control group was given tri-distilled water. Plasma was collected before high-fat diet feeding, after two weeks of high-fat diet feeding, before administration and after two weeks of administration, respectively. The hamsters were fasted for 12 hours at night, anesthetized by intraperitoneal injection of pentobarbital sodium, and about 1 ml of blood was collected from the posterior orbital vein, and heparin was used for anticoagulation. A plasma triglyceride assay kit and a total cholesterol assay kit (Biosino Bio-Technology and Science Inc.) were used to detect plasma triglyceride and total cholesterol levels. High-density lipoprotein cholesterol (HDL-C) was tested for cholesterol levels after removal of apoB-containing lipoproteins by polyethylene glycol precipitation. The lipid component of plasma lipoprotein was detected by using fast protein liquid chromatography (FPLC) instrument of Amersham Biocsciences, USA, and the plasma lipoprotein fraction was firstly separated by superose 6 HR10/30 column. […]

For series [2], the system named is LDL-R gene deficient Δ194 bp heterozygous hamsters. The series is described as follows: High-fat diet feeding with intragastric ezetimibe in LDL-R+/- hamsters; plasma lipids, lipoprotein FPLC, body weight. The series is classed as in vivo, golden Syrian hamster. As for the experimental part:
The high-fat diet used in the study was a normal rodent diet containing 0.5% cholesterol and 10% lard. The dose of ezetimibe was 2 mg/kg body weight, administered by intragastric administration, and the control group was given tri-distilled water. Plasma was collected before high-fat diet feeding, after two weeks of high-fat diet feeding, before administration and after two weeks of administration, respectively. The hamsters were fasted for 12 hours at night, anesthetized by intraperitoneal injection of pentobarbital sodium, and about 1 ml of blood was collected from the posterior orbital vein, and heparin was used for anticoagulation. A plasma triglyceride assay kit and a total cholesterol assay kit (Biosino Bio-Technology and Science Inc.) were used to detect plasma triglyceride and total cholesterol levels. High-density lipoprotein cholesterol (HDL-C) was tested for cholesterol levels after removal of apoB-containing lipoproteins by polyethylene glycol precipitation. The lipid component of plasma lipoprotein was detected by using fast protein liquid chromatography (FPLC) instrument of Amersham Biocsciences, USA, and the plasma lipoprotein fraction was firstly separated by superose 6 HR10/30 column. 200 μl of plasma was loaded through a 0.22 μm syringe filter, and the separated components were automatically collected at a rate of 0.5 mL per minute, 500 μl per component, for a total of 35 components. The above cholesterol detection kit was applied to each component to detect the cholesterol content, and a plasma lipoprotein profile was prepared.

The mark [3] stands for this setting: 2 mg/kg intragastric daily, two weeks, high-fat diet.

Take `O=C1[C@H](CC[C@H](O)c2ccc(F)cc2)[C@@H](c2ccc(O)cc2)N1c1ccc(F)cc1` [ezetimibe]: the “triglyceride level after administration” value in series [1] (high-fat diet only 413 mg/dL) worked out at 157 mg/dL; in series [2] (LDL-R+/- hamsters, high-fat diet plus 2 mg/kg ezetimibe intragastric daily for two weeks, high-fat diet only 658 mg/dL) it was 225 mg/dL. Also, the “plasma cholesterol level after administration” value is on record as 111 mg/dL in series [1] (high-fat diet only 513 mg/dL) and 157 mg/dL in series [2] (LDL-R+/- hamsters, high-fat diet plus 2 mg/kg ezetimibe intragastric daily for two weeks, high-fat diet only 1864 mg/dL). Moreover, in series [2] (2 mg/kg intragastric daily, high-fat diet), the “effect on hyperlipidemia of LDL-R knockout hamsters” value was “significantly reverses hyperlipidemia; also recorded: significantly reversed hypelipidemia”. For the same molecule, in series [2] (setting [3]), the “HDL cholesterol in plasma (FPLC)” value is on record as “not significantly changed; also recorded: little effect on HDL”. In series [2] (setting [3]), the “VLDL and LDL cholesterol in plasma (FPLC)” value is “decrease of VLDL-C and LDL-C; also recorded: mainly decreased VLDL and LDL in plasma”. Moreover, the “body weight, ezetimibe-administered group vs high-fat diet feeding group” value in series [2] (2 mg/kg intragastric daily, two weeks, high-fat diet, each group of hamsters (WT and LDL-R+/-)) is “no significant difference”. The “plasma cholesterol change after administration (in words)” value in series [2] (LDL-R heterozygous hamster on high-fat diet (0.5% cholesterol, 10% fat), ezetimibe 2 mg/kg) was “decreased to the level of the wild type hamster fed on common diet”.
